The numbers were not newly measured in US20210401707A1, “AZOXYSTROBIN IN A SULFATE FREE PERSONAL CARE COMPOSITION” (The Procter & Gamble Company, priority 2020, published 2021), which cites them from elsewhere.

As to `CO/C=C(/C(=O)OC)c1ccccc1Oc1cc(Oc2ccccc2C#N)ncn1` [Azoxystrobin], the solubility in water entry is listed as “low solubility in water”.
